{"source": "ChEMBL document CHEMBL4371008", "about": "“Monoacylglycerol Acyltransferase 2 (MGAT2) Inhibitors for the Treatment of Metabolic Diseases and Nonalcoholic Steatohepatitis (NASH)” (J Med Chem, 2018)", "key": {"[1]": {"test_system": "Mus musculus", "assay": "Inhibition of corn oil-induced plasma triacylglycerol excursion in C57BL/6J mouse at 30 mg/kg administered via oral gavage 30 mins prior to corn oil challenge measured after 6 hrs by oral lipid tolerance test relative to control", "type": "functional"}, "[2]": {"test_system": "Mus musculus", "assay": "Inhibition of corn oil-induced plasma chylomicron triacylglycerol excursion in C57BL/6J mouse at 30 mg/kg, ip treated 16 hrs prior to liquid meal challenge measured up to 4 hrs by oral meal tolerance test relative to control", "type": "functional"}, "[3]": {"assay": "Ratio of plasma concentration in corn oil-treated C57BL/6J mouse at 30 mg/kg, ip to IC50 for mouse MGAT2", "type": "ADME, organism-based", "settings": "in vivo"}, "[4]": {"test_system": "Mus musculus", "assay": "Anorectic effect in fasting high fat diet fed C57BL/6J mouse assessed as reduction in food intake at 30 mg/kg, po for 37 days followed by high fat diet feeding for 2 hrs relative to control", "type": "functional", "design": "scale not given: the % may be the effect or the level left"}, "[5]": {"test_system": "Mus musculus", "assay": "Inhibition of plasma triacylglycerol excursion in mouse at 10 mg/kg relative to control", "type": "functional"}, "[6]": {"test_system": "Mus musculus", "assay": "Inhibition of plasma triacylglycerol excursion in mouse at 30 mg/kg relative to control", "type": "functional"}, "[7]": {"assay": "Oral bioavailability in rat", "type": "ADME, organism-based", "settings": "in vivo"}, "[8]": {"assay": "Oral bioavailability in mouse", "type": "ADME, organism-based", "settings": "in vivo"}, "[9]": {"organism": "Homo sapiens", "assay": "Selectivity ratio of IC50 for human MGAT3 to IC50 for human MGAT2"}, "[10]": {"test_system": "Mus musculus", "assay": "Decrease in insulin level in high sucrose, very low fat diet fed mouse model of fatty liver at 100 mg/kg relative to control", "type": "functional", "design": "scale not given: the % may be the effect or the level left"}, "[11]": {"target": "T1, Diacylglycerol O-acyltransferase 2 (Homo sapiens, UniProt Q96PD7)", "T1 sequence (Q96PD7 whole entry)": "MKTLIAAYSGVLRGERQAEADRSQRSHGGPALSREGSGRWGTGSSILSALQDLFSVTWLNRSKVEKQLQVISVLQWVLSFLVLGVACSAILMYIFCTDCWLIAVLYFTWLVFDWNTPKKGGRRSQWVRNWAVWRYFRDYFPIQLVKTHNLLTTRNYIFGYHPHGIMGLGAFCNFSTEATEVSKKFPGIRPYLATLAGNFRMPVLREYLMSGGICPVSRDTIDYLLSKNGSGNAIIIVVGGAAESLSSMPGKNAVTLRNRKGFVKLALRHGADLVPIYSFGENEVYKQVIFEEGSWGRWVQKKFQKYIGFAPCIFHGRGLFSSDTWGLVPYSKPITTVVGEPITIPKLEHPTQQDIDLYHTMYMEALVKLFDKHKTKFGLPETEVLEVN", "assay": "Inhibition of recombinant human DGAT2"}, "[12]": {"test_system": "Mus musculus", "assay": "Decrease in insulin level in high sucrose, very low fat diet fed mouse model of fatty liver at 30 mg/kg relative to control", "type": "functional", "design": "scale not given: the % may be the effect or the level left"}}}
{"molecule": "O=C(CCNCC1COc2ccccc2O1)N1CCc2nc(SC3CCC3)n(-c3ccccc3)c(=O)c2C1", "note": "(stereo not drawn)", "values": [{"measurement": "inhibition in vivo at 30 mg/kg", "setting": "[1]", "result": 42, "unit": "%"}]}
{"molecule": "Cn1nc(C(F)(F)F)cc1-c1cnc(N2CCc3cc(S(=O)(=O)Nc4c(F)cc(Cl)cc4F)cc(N4CCCC4=O)c32)nc1", "note": "[TP-020]", "values": [{"measurement": "inhibition in vivo at 30 mg/kg", "setting": "[2]", "result": 58, "unit": "%"}, {"measurement": "Ratio", "setting": "[3]", "result": 1000}, {"measurement": "Activity", "setting": "[4]", "result": 59, "unit": "%"}]}
{"molecule": "CC(C)(C)C1CCN(Cc2ccc([C@H](NS(C)(=O)=O)C(F)(F)F)cc2)CC1", "values": [{"measurement": "inhibition in vivo at 10 mg/kg", "setting": "[5]", "result": 69, "unit": "%"}, {"measurement": "inhibition in vivo at 30 mg/kg", "setting": "[6]", "result": 100, "unit": "%"}]}
{"molecule": "CCC1(C)NC(=O)c2cc(S(=O)(=O)Nc3ccc(F)cc3F)cc(Cl)c2NC1=O", "note": "(stereo not drawn)", "values": [{"measurement": "bioavailability", "setting": "[7]", "result": 74, "unit": "%"}, {"measurement": "bioavailability", "setting": "[8]", "result": 69, "unit": "%"}]}
{"molecule": "O=C(CNCCCCCOc1ccc(C(F)(F)F)cc1)N1CCc2nc(SC3CCC3)n(-c3ccccc3)c(=O)c2C1", "values": [{"measurement": "inhibition in vivo at 30 mg/kg", "setting": "[1]", "result": 42, "unit": "%"}]}
{"molecule": "CC(C)(C)c1cc(C(C)(C)C)nc(N2CCn3c(nnc3-c3ccc(OC(F)(F)F)cc3)C2)n1", "values": [{"measurement": "Ratio IC50", "setting": "[9]", "result": 300}, {"measurement": "Activity", "setting": "[10]", "result": 51, "unit": "%"}, {"measurement": "IC50", "setting": "[11]", "result": "> 30", "unit": "µM"}, {"measurement": "Activity", "setting": "[12]", "result": 57, "unit": "%"}]}
